Reference: the NIST ThermoML archive (doi:10.1007/s10765-010-0874-x)
± gives the expanded uncertainty stated by the source.

Experiments:
[1] = xn = mol fraction of the nth substance listed; conditions: 101 kPa, Liquid; for speed of sound: Sing-around technique in a fixed-path interferometer
[2] = 101 kPa, Liquid; for speed of sound: Sing-around technique in a fixed-path interferometer

ClCCCl [1,2-dichloroethane] + CCCCCCO
[1]
Conditions | mass density, 293.15 K [kg/m3] | mass density, 298.15 K [kg/m3] | speed of sound, 293.15 K [m/s] | speed of sound, 298.15 K [m/s]
x1 = 0.037 | 828.769 ± 0.43 | 825.105 ± 0.43 | 1313.2 ± 0.83 | 1296.2 ± 0.83
x1 = 0.0769 | 839.847 ± 0.41 | 836.074 ± 0.42 | 1305.3 ± 0.83 | 1288.2 ± 0.82
x1 = 0.1499 | 860.583 ± 0.38 | 856.62 ± 0.39 | 1291.7 ± 0.83 | 1274.3 ± 0.82
x1 = 0.2147 | 879.725 ± 0.35 | 875.586 ± 0.36 | 1279.7 ± 0.82 | 1262.2 ± 0.82
x1 = 0.2935 | 904.954 ± 0.32 | 900.591 ± 0.33 | 1265.2 ± 0.82 | 1248 ± 0.81
x1 = 0.3952 | 940.475 ± 0.27 | 935.784 ± 0.28 | 1247.7 ± 0.81 | 1230 ± 0.81
x1 = 0.4532 | 962.107 ± 0.24 | 957.223 ± 0.25 | 1238.5 ± 0.81 | 1220.7 ± 0.8
x1 = 0.5596 | 1005.05 ± 0.2 | 999.79 ± 0.19 | 1222.8 ± 0.8 | 1206 ± 0.8
x1 = 0.6113 | 1027.55 ± 0.24 | 1022.09 ± 0.23 | 1216.7 ± 0.8 | 1199.8 ± 0.8
x1 = 0.6971 | 1067.98 ± 0.3 | 1062.14 ± 0.29 | 1207.9 ± 0.8 | 1189.7 ± 0.79
x1 = 0.7791 | 1111.06 ± 0.37 | 1104.85 ± 0.36 | 1202.3 ± 0.8 | 1184.3 ± 0.79
x1 = 0.8563 | 1155.16 ± 0.45 | 1148.59 ± 0.44 | 1200.7 ± 0.8 | 1182.8 ± 0.79
x1 = 0.9335 | 1205.43 ± 0.53 | 1198.46 ± 0.52 | 1205.4 ± 0.8 | 1184.3 ± 0.79
x1 = 0.979 | 1236.99 ± 0.59 | 1229.8 ± 0.57 | 1211.8 ± 0.8 | 1187.7 ± 0.79
x1 = 1 | 1252.77 ± 0.6 | 1245.56 ± 0.58 | 1212.9 ± 0.8 | 1193.6 ± 0.79

ClC(Cl)=C(Cl)Cl [tetrachloroethene]
[2]
Conditions | mass density [kg/m3] | speed of sound [m/s]
293.15 K | 1622.74 ± 1.2 | 1054 ± 0.75
298.15 K | 1614.43 ± 1.2 | 1039 ± 0.75

BrCCBr [1,2-dibromoethane]
[2]
Conditions | mass density [kg/m3] | speed of sound [m/s]
293.15 K | 2179.59 ± 2.2 | 1007 ± 0.74
298.15 K | 2169.14 ± 2.2 | 994.27 ± 0.74

CCCCCCO [hexan-1-ol] + BrCCBr
[1], x2 = 0
Conditions | mass density [kg/m3] | speed of sound [m/s]
293.15 K | 818.856 ± 0.44 | 1320.1 ± 0.83
298.15 K | 815.281 ± 0.45 | 1303.2 ± 0.83

CCCCCCO [hexan-1-ol]
[2]
Conditions | mass density [kg/m3] | speed of sound [m/s]
293.15 K | 818.856 ± 0.44 | 1320.1 ± 0.83
298.15 K | 815.281 ± 0.45 | 1303.2 ± 0.83

CCCCCCO [hexan-1-ol] + ClCCCl
[1], x2 = 0
Conditions | mass density [kg/m3] | speed of sound [m/s]
293.15 K | 818.856 ± 0.44 | 1320.1 ± 0.83
298.15 K | 815.281 ± 0.45 | 1303.2 ± 0.83

ClC(Cl)=C(Cl)Cl [tetrachloroethene] + CCCCCCO
[1]
Conditions | mass density, 293.15 K [kg/m3] | mass density, 298.15 K [kg/m3] | speed of sound, 293.15 K [m/s] | speed of sound, 298.15 K [m/s]
x1 = 0.0688 | 864.637 ± 0.4 | 860.792 ± 0.4 | 1292 ± 0.83 | 1274.5 ± 0.82
x1 = 0.123 | 901.521 ± 0.35 | 897.46 ± 0.35 | 1270.8 ± 0.82 | 1253.7 ± 0.82
x1 = 0.2457 | 987.759 ± 0.24 | 983.18 ± 0.24 | 1226.3 ± 0.81 | 1209.5 ± 0.8
x1 = 0.3618 | 1072.99 ± 0.33 | 1067.89 ± 0.32 | 1188.2 ± 0.8 | 1171.6 ± 0.79
x1 = 0.4502 | 1140.46 ± 0.44 | 1134.94 ± 0.43 | 1161.5 ± 0.79 | 1144.9 ± 0.78
x1 = 0.5583 | 1226.3 ± 0.57 | 1220.26 ± 0.56 | 1131.5 ± 0.78 | 1115.1 ± 0.77
x1 = 0.6518 | 1303.62 ± 0.7 | 1297.1 ± 0.69 | 1108.3 ± 0.77 | 1092 ± 0.77
x1 = 0.7068 | 1350.53 ± 0.78 | 1343.73 ± 0.77 | 1095.8 ± 0.77 | 1079.5 ± 0.76
x1 = 0.7419 | 1381.18 ± 0.83 | 1374.19 ± 0.82 | 1088.4 ± 0.76 | 1072 ± 0.76
x1 = 0.7797 | 1414.65 ± 0.89 | 1407.46 ± 0.88 | 1080.9 ± 0.76 | 1064.6 ± 0.76
x1 = 0.8315 | 1461.44 ± 0.97 | 1453.97 ± 0.95 | 1071.4 ± 0.76 | 1055.6 ± 0.75
x1 = 0.8718 | 1498.8 ± 1 | 1491.15 ± 1 | 1064.7 ± 0.76 | 1049 ± 0.75
x1 = 0.9179 | 1542.25 ± 1.1 | 1534.33 ± 1.1 | 1058.2 ± 0.75 | 1043.3 ± 0.75
x1 = 0.9504 | 1573.61 ± 1.2 | 1565.56 ± 1.1 | 1055 ± 0.75 | 1041.2 ± 0.75
x1 = 1 | 1622.74 ± 1.2 | 1614.43 ± 1.2 | 1054 ± 0.75 | 1039 ± 0.75

ClCCCl [1,2-dichloroethane]
[2]
Conditions | mass density [kg/m3] | speed of sound [m/s]
293.15 K | 1252.77 ± 0.6 | 1212.9 ± 0.8
298.15 K | 1245.56 ± 0.58 | 1193.6 ± 0.79

CCCCCCO [hexan-1-ol] + ClC(Cl)=C(Cl)Cl
[1], x2 = 0
Conditions | mass density [kg/m3] | speed of sound [m/s]
293.15 K | 818.856 ± 0.44 | 1320.1 ± 0.83
298.15 K | 815.281 ± 0.45 | 1303.2 ± 0.83

BrCCBr [1,2-dibromoethane] + CCCCCCO
[1]
Conditions | mass density, 293.15 K [kg/m3] | mass density, 298.15 K [kg/m3] | speed of sound, 293.15 K [m/s] | speed of sound, 298.15 K [m/s]
x1 = 0.0402 | 856.608 ± 0.43 | 852.83 ± 0.43 | 1296.7 ± 0.83 | 1280 ± 0.83
x1 = 0.0682 | 883.413 ± 0.4 | 879.495 ± 0.4 | 1281 ± 0.83 | 1264.4 ± 0.82
x1 = 0.1276 | 941.916 ± 0.33 | 937.69 ± 0.33 | 1249.4 ± 0.82 | 1233.1 ± 0.81
x1 = 0.2056 | 1022.36 ± 0.3 | 1017.7 ± 0.29 | 1211.2 ± 0.81 | 1195.3 ± 0.8
x1 = 0.2686 | 1090.47 ± 0.4 | 1085.45 ± 0.39 | 1182.9 ± 0.8 | 1167.3 ± 0.79
x1 = 0.3892 | 1228.97 ± 0.6 | 1223.2 ± 0.59 | 1135.2 ± 0.78 | 1120.2 ± 0.78
x1 = 0.4277 | 1276.43 ± 0.69 | 1270.41 ± 0.68 | 1121.2 ± 0.78 | 1106.3 ± 0.77
x1 = 0.5444 | 1427.13 ± 0.93 | 1420.31 ± 0.92 | 1083.6 ± 0.76 | 1069.2 ± 0.76
x1 = 0.6405 | 1562 ± 1.2 | 1554.45 ± 1.1 | 1057.4 ± 0.76 | 1043.6 ± 0.75
x1 = 0.7326 | 1701.64 ± 1.4 | 1693.37 ± 1.4 | 1036.5 ± 0.75 | 1023.1 ± 0.75
x1 = 0.8519 | 1899.69 ± 1.7 | 1890.44 ± 1.7 | 1016.8 ± 0.74 | 1004 ± 0.74
x1 = 0.9273 | 2036.52 ± 2 | 2026.66 ± 2 | 1009.9 ± 0.74 | 997.38 ± 0.74
x1 = 0.9587 | 2096.51 ± 2.1 | 2086.4 ± 2.1 | 1008.3 ± 0.74 | 995.92 ± 0.74
x1 = 0.9782 | 2135.29 ± 2.2 | 2125.02 ± 2.1 | 1007.4 ± 0.74 | 994.76 ± 0.74
x1 = 1 | 2179.59 ± 2.2 | 2169.14 ± 2.2 | 1007 ± 0.74 | 994.27 ± 0.74
